# Source: patent publication US20050271723A1, “Dosage forms for treatment of benign prostatic hyperplasia” (Threshold Pharmaceuticals, Inc., priority 2003, published 2005)
# Entries after “also recorded” stand apart in the source; their conditions may differ.
# Experiments:
# PC3 cells = assay: Apoptosis assay (caspase 3 activity) in PC3 cells; type: cell-based, human; conditions: PC3, citrate-oxidizing cells; 6 h
# Procedure: (§1) Immunoblotting: Immunoblotting was carried out as described in Example 2. […] Apoptosis Assay: […] Lonidamine was added into each well at different concentrations, and then incubated for 6 h at 37° C. To assess the caspase 3 activity, the homogeneous buffer and caspase 3 substrate (Promega No G7791; Promega Corporation, 2800 Woods Hollow Road, Madison Wis. USA 53711) were added into each well in the presence or absence of caspase 3 inhibitor (Promega No G5961). The fluorescence intensity of cleaved substrate was determined using a fluorescence plate reader at excitation 485 nm and emission 530 nm.
# [1] = higher doses of lonidamine; usually mild; cited from earlier work
# HIF-1α [2] = assay: HIF-1α expression in LNCaP cells (immunoblot of nuclear and whole cell extracts); type: cell-based, human; conditions: hypoxic conditions (oxygen level <0.1%)
# From the text: (§2) See Franklin et al; 1995. […] 20108 USA. Methods: […]
# LNCaP cells = assay: Apoptosis assay (caspase 3 activity) in LNCaP cells; type: cell-based, human; conditions: citrate-producing cells, 6 h
# Procedure: as §1
# HIF-1α [3] = assay: HIF-1α expression in PC3 cells (immunoblot of nuclear and whole cell extracts); type: cell-based, human; conditions: normoxic and hypoxic conditions, 4 hours, dose-dependent
# From the text: as §2
# [4] = system: human prostate stromal cells; assay: Apoptosis assay in primary cultures of human prostate stromal cells; type: cell-based; conditions: 6 h
# Procedure: (§3) Primary Cell Cultures: Primary cultures of human prostate epithelial cells (Cambrex No. CC-2555) and human prostate stromal cells (Cambrex No. CC-2508) were obtained from Cambrex Bio Science Rockland, Inc. (191 Thomaston Street, Rockland, Me. 04841). Apoptosis Assay: […] Lonidamine was added into each well at different concentrations, and then incubated for 6 h at 37° C. To assess the caspase 3 activity, the homogeneous buffer and caspase 3 substrate (Promega No G7791; Promega Corporation, 2800 Woods Hollow Road, Madison Wis. USA 53711) were added into each well in the presence or absence of caspase 3 inhibitor (Promega No G5961). The fluorescence intensity of cleaved substrate was determined using a fluorescence plate reader at excitation 485 nm and emission 530 nm.
# [5] = system: actin, caspase 3, NF-κB, IκBα; assay: Protein levels of actin, caspase 3, NF-κB, IκBα in prostate cell lines (immunoblot); type: cell-based, human; conditions: except at 800 μM concentration
# Procedure: Methods: Cells were plated at a density of 5×10^5 cells into a dish, and then maintained in 37° C. incubator (5% CO2) for 2 days. Prior to the assay, cells were rinsed twice with pre-warmed (37° C.) RPMI-1640 Medium (ATCC No. 30-2001; 10 mM HEPES; 1 mM sodium pyruvate; 2 mM L-glutamine; 4500 mg glucose/L; 1500 mg sodium bicarbonate/L). Cells were incubated with 2 ml culture medium in the absence or presence of lonidamine at different concentrations for 4 hours at 37° C. either under normoxia or hypoxia (oxygen level<0.1%). At the end of the incubation, the dish was placed on ice, and the cells were washed rapidly twice with cold PBS buffer (4° C.). For nuclear extracts, cells were lysed with buffer A (10 mM Tris, pH7.5; 1.5 mM MgCl2; 10 mM KCl and protease inhibitors and buffer C (0.5 M NaCl; 20 mM Tris pH7.5; 1.5 mM MgCl2; 20% glycerol and protease inhibitors), sequentially. The protease inhibitors used in the experiments were a cocktail of five protease inhibitors (500 mM AEBSF-HCl, 1 mg/ml Aprotinin, 1 mM E-64, 500 mM EDTA and 1 mM Leupeptin; Calbiochem NO 539131). For whole cell lysate, cells were lysed with 150 mM NaCl; 10 mM Tris ph7.5; 10 mM EDTA; 1% Triton X-100; 0.5% Deoxycholate, and protease inhibitors. The protein concentration was measured using a Bio-Rad protein assay. Equal amounts of protein were loaded on a SDS-PAGE gel. […]
# [6] = system: human prostate epithelial cells; assay: Apoptosis assay in primary cultures of human prostate epithelial cells; type: cell-based
# Procedure: as §3
smiles,measurement,setting,value
"O=C(O)c1nn(Cc2ccc(Cl)cc2Cl)c2ccccc12 [lonidamine, 1-(2,4-dichlorobenzyl)-1H-indazole-3-carboxylic acid]","activation of caspase 3 (apoptosis), LNCaP compared with PC3 cells",PC3 cells,significantly greater in LNCaP cells
same,side effects,[1],myalgia and testicular pain
same,"effect on HIF-1α expression, LNCaP compared with PC3 cells",HIF-1α [2],more pronounced in LNCaP cells than in PC3 cells
same,activation of caspase 3 (apoptosis),LNCaP cells,induced activation of caspase 3
same,level of HIF-1α protein in nuclear and whole-cell extracts,HIF-1α [3],reduced the level of HIF-1α protein
same,induction of apoptosis,[4],induction of apoptosis was not observed
same,"inhibition of protein levels of actin, caspase 3, NF-κB, or IκBα",[5],no detectable inhibition
same,"induction of apoptosis, epithelial compared with stromal cells",[6]; primary cultures,significantly greater in primary cultures of prostate epithelial cells
same,induction of apoptosis,"[6]; primary prostate epithelial cells, 6 h",induced apoptosis only in prostate epithelial cells in a dose-dependent manner; also recorded: induces apoptosis
